Drawing on ChEMBL document CHEMBL5715954, “Silencing c-Myc translation as a therapeutic strategy through targeting PI3Kδ and CK1ε in hematological malignancies” (Blood, 2017), this text covers Activity for three compounds.

The structures appear in SMILES notation.

Parameters in all cases: scale not given: the % may be the effect or the level left
The target of experiment [1] is T1, Ephrin type-B receptor 4 (Homo sapiens) (UniProt P54760).
T1 sequence (whole entry): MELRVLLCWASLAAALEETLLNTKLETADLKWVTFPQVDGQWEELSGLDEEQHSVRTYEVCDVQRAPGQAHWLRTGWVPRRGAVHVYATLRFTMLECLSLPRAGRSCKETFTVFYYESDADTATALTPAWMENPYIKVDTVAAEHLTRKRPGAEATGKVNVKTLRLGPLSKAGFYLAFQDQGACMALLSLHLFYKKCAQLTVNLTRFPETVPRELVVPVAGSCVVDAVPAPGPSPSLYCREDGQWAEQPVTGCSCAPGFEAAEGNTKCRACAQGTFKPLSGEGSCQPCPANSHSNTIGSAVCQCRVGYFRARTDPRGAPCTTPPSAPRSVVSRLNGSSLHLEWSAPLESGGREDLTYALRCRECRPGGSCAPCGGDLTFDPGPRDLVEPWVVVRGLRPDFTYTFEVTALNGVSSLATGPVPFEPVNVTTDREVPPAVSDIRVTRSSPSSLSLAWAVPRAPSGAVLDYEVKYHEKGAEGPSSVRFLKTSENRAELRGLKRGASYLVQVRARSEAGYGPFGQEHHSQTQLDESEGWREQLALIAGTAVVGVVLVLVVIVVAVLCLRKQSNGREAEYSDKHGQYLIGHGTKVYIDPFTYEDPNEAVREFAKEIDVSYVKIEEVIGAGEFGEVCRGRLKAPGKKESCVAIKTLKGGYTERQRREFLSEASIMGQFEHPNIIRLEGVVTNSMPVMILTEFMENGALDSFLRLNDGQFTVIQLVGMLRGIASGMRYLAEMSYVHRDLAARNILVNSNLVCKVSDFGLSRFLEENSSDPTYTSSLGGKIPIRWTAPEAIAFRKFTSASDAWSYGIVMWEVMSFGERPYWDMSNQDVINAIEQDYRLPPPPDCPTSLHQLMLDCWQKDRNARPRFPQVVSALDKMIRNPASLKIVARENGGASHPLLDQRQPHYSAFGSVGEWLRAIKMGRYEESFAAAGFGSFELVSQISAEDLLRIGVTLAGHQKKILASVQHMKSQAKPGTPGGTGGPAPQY
Briefly: Inhibition of human EPHB4 assessed as enzyme activity at 1 uM using poly[Glu:Tyr] (4:1) as substrate preincubated for 20 mins followed by [gamma-33P]-ATP addition and measured after 120 mins by radiometric Hot-SpotSM Kinase assay relative to control.

Experiment [2] has as its target Serine/threonine-protein kinase pim-1 (Homo sapiens) (UniProt P11309). Briefly: Inhibition of human PIM1 assessed as enzyme activity at 1 uM using RSRHSSYPAGT as substrate preincubated for 20 mins followed by [gamma-33P]-ATP addition and measured after 120 mins by radiometric Hot-SpotSM Kinase assay relative to control.
In experiment [3] the target is T2, Phosphorylase b kinase gamma catalytic chain, liver/testis isoform (Homo sapiens) (UniProt P15735).
T2 sequence (whole entry): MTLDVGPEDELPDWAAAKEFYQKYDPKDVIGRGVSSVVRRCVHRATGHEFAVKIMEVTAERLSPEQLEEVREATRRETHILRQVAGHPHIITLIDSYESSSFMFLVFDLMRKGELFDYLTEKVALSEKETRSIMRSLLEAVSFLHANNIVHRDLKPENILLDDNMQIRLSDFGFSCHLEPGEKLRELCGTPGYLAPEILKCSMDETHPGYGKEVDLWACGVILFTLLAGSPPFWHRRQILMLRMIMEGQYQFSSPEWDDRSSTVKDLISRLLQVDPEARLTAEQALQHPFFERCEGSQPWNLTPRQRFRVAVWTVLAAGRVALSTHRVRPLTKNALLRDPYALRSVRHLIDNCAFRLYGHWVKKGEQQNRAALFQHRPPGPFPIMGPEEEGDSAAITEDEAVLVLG
Briefly: Inhibition of human PHKg2 assessed as enzyme activity at 1 uM using KKLNRTLSFAEPG as substrate preincubated for 20 mins followed by [gamma-33P]-ATP addition and measured after 120 mins by radiometric Hot-SpotSM Kinase assay relative to control.

In experiment [4] the target is Tyrosine-protein kinase Fes/Fps (Homo sapiens) (UniProt P07332). Briefly: Inhibition of human FES/FPS assessed as enzyme activity at 1 uM using poly[Glu:Tyr] (4:1) as substrate preincubated for 20 mins followed by [gamma-33P]-ATP addition and measured after 120 mins by radiometric Hot-SpotSM Kinase assay relative to control.
The target in experiment [5] is Inactive tyrosine-protein kinase PEAK1 (Homo sapiens) (UniProt Q9H792). Briefly: Inhibition of human PEAK1 assessed as enzyme activity at 1 uM using poly[Glu:Tyr] (4:1) as substrate preincubated for 20 mins followed by [gamma-33P]-ATP addition and measured after 120 mins by radiometric Hot-SpotSM Kinase assay relative to control.
Experiment [6] deals with Serine/threonine-protein kinase 24 (Homo sapiens) (UniProt Q9Y6E0). Briefly: Inhibition of human MST3 assessed as enzyme activity at 1 uM using myelin basic protein as substrate preincubated for 20 mins followed by [gamma-33P]-ATP addition and measured after 120 mins by radiometric Hot-SpotSM Kinase assay relative to control.
Experiment [7] has as its target Vascular endothelial growth factor receptor 1 (Homo sapiens) (UniProt P17948). Briefly: Inhibition of human FLT1 assessed as enzyme activity at 1 uM using poly[Glu:Tyr] (4:1) as substrate preincubated for 20 mins followed by [gamma-33P]-ATP addition and measured after 120 mins by radiometric Hot-SpotSM Kinase assay relative to control.
Experiment [8] deals with T3, Mitogen-activated protein kinase 13 (Homo sapiens) (UniProt O15264).
T3 sequence (whole entry): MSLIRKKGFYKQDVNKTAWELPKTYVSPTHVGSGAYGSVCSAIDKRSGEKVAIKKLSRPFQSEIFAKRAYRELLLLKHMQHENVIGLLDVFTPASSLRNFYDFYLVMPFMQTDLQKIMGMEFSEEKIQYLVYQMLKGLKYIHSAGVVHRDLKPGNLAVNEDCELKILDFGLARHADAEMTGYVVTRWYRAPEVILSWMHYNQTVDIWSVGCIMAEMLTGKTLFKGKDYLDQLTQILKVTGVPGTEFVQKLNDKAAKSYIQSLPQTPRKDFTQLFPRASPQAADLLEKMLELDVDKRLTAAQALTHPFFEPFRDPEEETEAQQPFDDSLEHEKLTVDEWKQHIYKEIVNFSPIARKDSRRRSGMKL
Briefly: Inhibition of human P38d assessed as enzyme activity at 1 uM using myelin basic protein as substrate preincubated for 20 mins followed by [gamma-33P]-ATP addition and measured after 120 mins by radiometric Hot-SpotSM Kinase assay relative to control.

Experiment [9] addresses Macrophage colony-stimulating factor 1 receptor (Homo sapiens) (UniProt P07333). Briefly: Inhibition of human FMS assessed as enzyme activity at 1 uM using poly[Glu:Tyr] (4:1) as substrate preincubated for 20 mins followed by [gamma-33P]-ATP addition and measured after 120 mins by radiometric Hot-SpotSM Kinase assay relative to control.

Serine/threonine-protein kinase pim-1 (Homo sapiens), sequence (P11309 whole entry, looked up, canonical isoform): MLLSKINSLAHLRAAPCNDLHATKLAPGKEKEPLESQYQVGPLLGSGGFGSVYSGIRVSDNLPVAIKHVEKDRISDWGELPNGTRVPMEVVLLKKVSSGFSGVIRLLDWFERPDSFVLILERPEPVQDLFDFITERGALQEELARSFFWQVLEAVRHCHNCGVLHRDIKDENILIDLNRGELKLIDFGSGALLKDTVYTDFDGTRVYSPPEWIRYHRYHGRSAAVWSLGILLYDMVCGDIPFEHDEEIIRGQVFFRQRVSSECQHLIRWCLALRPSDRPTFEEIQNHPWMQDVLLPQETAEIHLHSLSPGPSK
Inactive tyrosine-protein kinase PEAK1 (Homo sapiens), sequence (Q9H792 whole entry): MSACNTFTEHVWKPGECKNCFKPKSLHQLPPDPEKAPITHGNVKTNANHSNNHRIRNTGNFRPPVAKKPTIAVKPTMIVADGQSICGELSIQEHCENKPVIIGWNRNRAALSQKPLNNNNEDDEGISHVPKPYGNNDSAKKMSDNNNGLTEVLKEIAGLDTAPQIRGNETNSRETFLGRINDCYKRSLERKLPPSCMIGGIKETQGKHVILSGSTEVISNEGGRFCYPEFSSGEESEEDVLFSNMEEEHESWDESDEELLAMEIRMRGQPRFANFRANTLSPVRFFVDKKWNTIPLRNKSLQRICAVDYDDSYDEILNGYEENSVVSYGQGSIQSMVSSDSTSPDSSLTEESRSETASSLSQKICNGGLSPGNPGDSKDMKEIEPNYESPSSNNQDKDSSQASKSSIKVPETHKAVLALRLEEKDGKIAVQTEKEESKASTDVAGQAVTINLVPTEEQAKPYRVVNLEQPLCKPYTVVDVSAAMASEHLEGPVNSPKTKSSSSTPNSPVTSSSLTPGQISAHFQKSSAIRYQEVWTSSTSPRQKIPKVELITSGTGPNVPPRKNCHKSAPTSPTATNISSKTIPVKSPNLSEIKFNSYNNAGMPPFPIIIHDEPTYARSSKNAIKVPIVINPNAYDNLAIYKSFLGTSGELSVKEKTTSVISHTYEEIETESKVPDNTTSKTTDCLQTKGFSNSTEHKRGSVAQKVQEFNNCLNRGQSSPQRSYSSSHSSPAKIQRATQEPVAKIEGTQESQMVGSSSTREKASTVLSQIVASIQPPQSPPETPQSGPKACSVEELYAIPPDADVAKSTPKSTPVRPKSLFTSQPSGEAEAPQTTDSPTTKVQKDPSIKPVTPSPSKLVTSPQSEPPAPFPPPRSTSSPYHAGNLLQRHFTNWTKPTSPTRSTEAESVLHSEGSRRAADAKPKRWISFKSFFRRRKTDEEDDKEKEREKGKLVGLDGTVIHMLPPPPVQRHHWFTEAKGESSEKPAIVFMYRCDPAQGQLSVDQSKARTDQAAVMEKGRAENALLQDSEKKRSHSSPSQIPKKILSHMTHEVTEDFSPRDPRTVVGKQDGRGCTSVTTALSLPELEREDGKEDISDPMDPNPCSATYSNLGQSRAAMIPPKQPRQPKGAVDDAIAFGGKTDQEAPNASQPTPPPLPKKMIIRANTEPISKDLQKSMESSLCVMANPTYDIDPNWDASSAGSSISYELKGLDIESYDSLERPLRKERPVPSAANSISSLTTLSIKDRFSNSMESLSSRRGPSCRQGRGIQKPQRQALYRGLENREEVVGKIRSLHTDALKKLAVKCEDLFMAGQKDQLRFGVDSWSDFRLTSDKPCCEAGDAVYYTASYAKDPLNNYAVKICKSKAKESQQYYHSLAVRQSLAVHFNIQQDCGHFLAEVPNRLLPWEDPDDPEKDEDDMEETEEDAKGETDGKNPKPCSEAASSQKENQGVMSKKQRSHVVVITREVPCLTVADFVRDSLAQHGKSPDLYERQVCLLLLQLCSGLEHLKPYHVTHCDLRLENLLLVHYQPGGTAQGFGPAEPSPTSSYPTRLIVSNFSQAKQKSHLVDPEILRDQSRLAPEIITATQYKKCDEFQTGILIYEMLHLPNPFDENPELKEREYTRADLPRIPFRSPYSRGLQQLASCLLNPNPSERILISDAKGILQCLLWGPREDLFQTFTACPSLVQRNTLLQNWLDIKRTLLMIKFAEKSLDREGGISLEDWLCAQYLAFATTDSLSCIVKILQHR
Serine/threonine-protein kinase 24 (Homo sapiens), sequence (Q9Y6E0 whole entry, looked up): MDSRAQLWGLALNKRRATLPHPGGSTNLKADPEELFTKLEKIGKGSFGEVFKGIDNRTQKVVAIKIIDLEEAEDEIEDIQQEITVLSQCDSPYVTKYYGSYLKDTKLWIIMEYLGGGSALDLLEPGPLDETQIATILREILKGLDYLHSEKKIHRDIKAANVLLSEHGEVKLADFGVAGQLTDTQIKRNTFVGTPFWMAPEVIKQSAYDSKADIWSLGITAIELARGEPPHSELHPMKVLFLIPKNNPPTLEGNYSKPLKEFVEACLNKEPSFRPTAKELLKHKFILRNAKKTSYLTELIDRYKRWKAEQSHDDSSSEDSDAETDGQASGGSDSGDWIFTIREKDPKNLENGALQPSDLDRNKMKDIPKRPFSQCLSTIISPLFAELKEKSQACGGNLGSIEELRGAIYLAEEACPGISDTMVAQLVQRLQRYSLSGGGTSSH
Tyrosine-protein kinase Fes/Fps (Homo sapiens), sequence (P07332 whole entry): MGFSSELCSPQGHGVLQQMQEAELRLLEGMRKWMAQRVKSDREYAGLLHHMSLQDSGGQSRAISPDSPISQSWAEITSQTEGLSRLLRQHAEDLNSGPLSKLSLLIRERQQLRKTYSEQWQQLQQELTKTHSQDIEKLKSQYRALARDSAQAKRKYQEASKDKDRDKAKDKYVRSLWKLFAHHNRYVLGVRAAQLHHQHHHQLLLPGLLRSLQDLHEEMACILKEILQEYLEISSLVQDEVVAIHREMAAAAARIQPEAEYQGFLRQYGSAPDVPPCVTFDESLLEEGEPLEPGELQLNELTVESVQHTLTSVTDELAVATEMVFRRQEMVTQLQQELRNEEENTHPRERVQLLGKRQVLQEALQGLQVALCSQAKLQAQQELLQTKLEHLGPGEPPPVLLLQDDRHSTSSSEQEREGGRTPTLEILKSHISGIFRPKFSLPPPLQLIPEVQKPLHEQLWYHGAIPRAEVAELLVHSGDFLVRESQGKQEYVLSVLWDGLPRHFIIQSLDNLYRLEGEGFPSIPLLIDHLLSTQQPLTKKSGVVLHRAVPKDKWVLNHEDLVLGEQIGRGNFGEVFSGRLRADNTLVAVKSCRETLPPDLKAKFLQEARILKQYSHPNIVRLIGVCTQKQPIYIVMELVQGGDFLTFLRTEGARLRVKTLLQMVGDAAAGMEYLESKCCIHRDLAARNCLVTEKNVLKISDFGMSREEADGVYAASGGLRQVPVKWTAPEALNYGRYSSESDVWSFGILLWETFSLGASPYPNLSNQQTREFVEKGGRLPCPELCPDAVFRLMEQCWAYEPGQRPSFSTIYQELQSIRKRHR
Vascular endothelial growth factor receptor 1 (Homo sapiens), sequence (P17948 whole entry): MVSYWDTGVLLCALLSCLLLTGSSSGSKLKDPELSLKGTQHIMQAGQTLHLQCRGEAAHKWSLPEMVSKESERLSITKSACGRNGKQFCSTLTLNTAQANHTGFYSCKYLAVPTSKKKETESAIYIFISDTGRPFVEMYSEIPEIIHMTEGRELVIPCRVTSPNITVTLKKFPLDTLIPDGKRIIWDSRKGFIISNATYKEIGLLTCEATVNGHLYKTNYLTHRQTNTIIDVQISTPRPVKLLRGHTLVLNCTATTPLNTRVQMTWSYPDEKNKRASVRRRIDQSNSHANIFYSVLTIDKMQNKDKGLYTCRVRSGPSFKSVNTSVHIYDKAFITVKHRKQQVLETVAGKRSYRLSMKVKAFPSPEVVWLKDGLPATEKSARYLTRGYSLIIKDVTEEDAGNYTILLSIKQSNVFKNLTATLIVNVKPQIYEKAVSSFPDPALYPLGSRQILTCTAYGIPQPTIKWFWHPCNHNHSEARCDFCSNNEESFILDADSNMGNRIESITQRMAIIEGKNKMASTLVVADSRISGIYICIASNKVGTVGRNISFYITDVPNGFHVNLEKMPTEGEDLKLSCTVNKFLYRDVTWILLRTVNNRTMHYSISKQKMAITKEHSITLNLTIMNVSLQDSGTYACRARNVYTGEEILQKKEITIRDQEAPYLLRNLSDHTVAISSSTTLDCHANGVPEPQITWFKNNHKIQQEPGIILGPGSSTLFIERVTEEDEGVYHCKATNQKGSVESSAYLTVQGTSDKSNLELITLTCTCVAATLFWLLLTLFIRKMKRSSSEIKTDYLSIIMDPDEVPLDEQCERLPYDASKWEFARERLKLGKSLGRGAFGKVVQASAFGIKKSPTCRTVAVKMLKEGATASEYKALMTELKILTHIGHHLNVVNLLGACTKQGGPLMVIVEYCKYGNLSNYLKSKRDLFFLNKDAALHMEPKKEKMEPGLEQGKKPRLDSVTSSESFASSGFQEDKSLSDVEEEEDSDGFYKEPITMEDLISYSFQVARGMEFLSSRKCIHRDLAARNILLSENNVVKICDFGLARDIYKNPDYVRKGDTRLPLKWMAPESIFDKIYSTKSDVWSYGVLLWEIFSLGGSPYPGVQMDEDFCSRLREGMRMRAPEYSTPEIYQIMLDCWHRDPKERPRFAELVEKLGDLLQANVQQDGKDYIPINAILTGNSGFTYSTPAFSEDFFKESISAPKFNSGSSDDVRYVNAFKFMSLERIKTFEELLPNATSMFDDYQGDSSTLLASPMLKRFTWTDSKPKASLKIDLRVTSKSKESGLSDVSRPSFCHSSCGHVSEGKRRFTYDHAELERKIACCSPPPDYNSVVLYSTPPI

Regarding `C[C@H](Nc1ncnc2nc[nH]c12)c1cc2cccc(Cl)c2c(=O)n1-c1ccccc1`, the Activity was 91.5% in experiment [1]; 99.6% in experiment [2]; 102% in experiment [3]; 95.6% in [4]; 89.4% in experiment [5]; 87.3% in experiment [6]. In addition, the Activity in experiment [7] amounted to 94.3%; in experiment [8], 105%; in [9], 100%.

`CC[C@H](Nc1ncnc2[nH]cnc12)c1nc2cccc(F)c2c(=O)n1-c1ccccc1`: the Activity in experiment [1] was found to be 92.2%; in experiment [2], 99.6%; in [3], 89.1%; in [4] it was 91.5%; in experiment [5] it was 93.3%; in experiment [6], 88.2%. Further, the Activity in experiment [7] was 94.4%; in experiment [8] it was 96.5%; in experiment [9], 98.1%.

On to `CC(C)Oc1ccc(-c2nn([C@@H](C)c3oc4ccc(F)cc4c(=O)c3-c3cccc(F)c3)c3ncnc(N)c23)cc1F` [UMBRALISIB], for which the Activity in experiment [1] amounted to 89.7%; in experiment [2], 98.2%; in [3] it was 95.4%; in experiment [4], 97.5%; in [5], 95%; in [6], 81.6%. For the same compound, the results for the Activity in experiment [7], in experiment [8] and in experiment [9] were 92.3%, 104% and 104%, respectively.
